The results in this text go back to patent US20090114877A1, “Composition Containing Stability-Improved Chloromethyl Phosphate Derivatve and Process for Producing Same” (Eisai R&D Management Co., Ltd., priority 2005, published 2009).

This data set can be described thus: Evaluation of storage stability (P-NMR integration values before and after storage). As to the method: Note that evaluation of storage stability can be carried out by calculation of peak area derived from Compound (6) by high performance liquid chromatography or calculation of integration value by P-NMR measurement before and after storage.
Using the resulting di-tert-butyl chlorophosphate, N-methylmorpholine (NMM) and N,N-diisopropyl ethylamine (iPr2EtN) were added at given concentrations as tertiary amines, prior to concentrating the organic layer containing the phosphate. Then, after storing at a temperature of 40° C. for 3 hours (3 hr) or 6 hours (6 hr), integration values of di-tert-butyl chlorophosphate before and after storage were measured by P-NMR measurements. Note that the storage test at 40° C. was carried out using EYELA ChemStation (temperature accuracy of ±1° C.) as thermoregulated bath.

Where [1] appears, read: 0 mol % NMM added, 40° C., 3 hours storage test, FIG. 2.

Consider `CC(C)(C)OP(=O)(OCCl)OC(C)(C)C` [di-tert-butyl chlorophosphate, di-tert-butyl chloromethyl phosphate], for which the “amount of remaining di-tert-butyl chlorophosphate” value under setting [1] was found to be 34%. Under setting [1], the “initial di-tert-butyl chlorophosphate decomposed” value came to 66%. For the same compound, the “amount of di-tert-butyl chlorophosphate remaining” value by setting is: (1 mol % NMM added, 40° C., 3 hours storage test) 34%; (2.5 mol % NMM added, 40° C., 3 hours storage test) 88%. Moreover, the “decomposition of di-tert-butyl chlorophosphate on storage” value was “not observed” (5 mol % NMM added, 40° C., 3 hours storage test, FIG. 2); “no decomposition” (5 mol % NMM added, stored at 40° C. for 3 hr or 6 hr, FIG. 1); “no decomposition” (5 mol % iPr2EtN added, stored at 40° C. for 3 hr or 6 hr, FIG. 1); “no decomposition” (10 mol % NMM added, storage at room temperature for 1.5 days).
